In US20230085307A1, “PYRIDAZINONE COMPOUND AND HERBICIDE” (NISSAN CHEMICAL CORPORATION, priority 2019, published 2023):

Columns and labels:
[1] = tested on: late watergrass; assay: Test Example 1: herbicidal activity, application before weed generation under submerged conditions (Table 16, symbol A); assay type: in vivo, late watergrass (Echinochloa oryzicola)
How it was run: (§1)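 Alluvial soil was flooded to 4 cm depth, weed seeds were sown mixed and 2.5-leaf rice seedlings were transplanted. On sowing day, the compound's emulsion, diluted in water to a set dose, was applied to the water surface. Plants grew at 25–30 °C and were scored 0–5 after three weeks.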

[2] = tested on: Japanese bulrush; assay: Test Example 1: herbicidal activity, application before weed generation under submerged conditions (Table 16, symbol B); assay type: in vivo, Japanese bulrush (Schoenoplectus juncoides)
How it was run: as §1

[3] = tested on: oval-leafed pondweed; assay: Test Example 1: herbicidal activity, application before weed generation under submerged conditions (Table 16, symbol C); assay type: in vivo, oval-leafed pondweed (Monochoria vaginalis)
How it was run: as §1

[4] = tested on: barnyard grass; assay: Test Example 3: herbicidal effect by foliage application, Wagner pot (Table 18, symbol H); assay type: in vivo, barnyard grass (Echinochloa crus-galli)
How it was run: (§2)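 Plants were sown in alluvial soil held under 0.1–0.5 cm standing water and grown 14 days in a greenhouse at 25–30 °C. An emulsifiable formulation, water-diluted to the set dose, was then sprayed onto the foliage, and effects were scored three weeks later using previously defined criteria.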

[5] = tested on: Chinese sprangletop; assay: Test Example 3: herbicidal effect by foliage application, Wagner pot (Table 18, symbol D); assay type: in vivo, chinese sprangletop (Leptochloa chinensis)
How it was run: as §2

[6] = tested on: rice flat sedge; assay: Test Example 3: herbicidal effect by foliage application, Wagner pot (Table 18, symbol E); assay type: in vivo, rice flat sedge (Cyperus iria)
How it was run: as §2

[7] = tested on: southern crabgrass; assay: Test Example 4: herbicidal effect by soil treatment (Table 19, symbol F); assay type: in vivo, southern crabgrass (Digitaria ciliaris)
How it was run: (§3)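 Pre-emergence style soil spray: seeds under ~1.5 cm sterilized diluvial soil received a uniform coat of emulsion diluted to the predetermined herbicide amount. Greenhouse 25–30° C; readout at week three on previously defined criteria.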

[8] = tested on: green foxtail; assay: Test Example 4: herbicidal effect by soil treatment (Table 19, symbol G); assay type: in vivo, green foxtail (Setaria viridis)
How it was run: as §3

[9] = tested on: barnyard grass; assay: Test Example 4: herbicidal effect by soil treatment (Table 19, symbol H); assay type: in vivo, barnyard grass (Echinochloa crus-galli)
How it was run: as §3

[10] = tested on: wild oat; assay: Test Example 4: herbicidal effect by soil treatment (Table 19, symbol I); assay type: in vivo, wild oat (Avena fatua)
How it was run: as §3

[11] = tested on: blackgrass; assay: Test Example 4: herbicidal effect by soil treatment (Table 19, symbol J); assay type: in vivo, blackgrass (Alopecurus myosuroides)
How it was run: as §3

[12] = tested on: Italian ryegrass; assay: Test Example 4: herbicidal effect by soil treatment (Table 19, symbol K); assay type: in vivo, Italian ryegrass (Lolium multiflorum)
How it was run: as §3

[13] = tested on: windgrass; assay: Test Example 4: herbicidal effect by soil treatment (Table 19, symbol L); assay type: in vivo, windgrass (Apera spica-venti)
How it was run: as §3

[14] = tested on: velvetleaf; assay: Test Example 4: herbicidal effect by soil treatment (Table 19, symbol M); assay type: in vivo, velvetleaf (Abutilon theophrasti)
How it was run: as §3

[15] = tested on: redroot pigweed; assay: Test Example 4: herbicidal effect by soil treatment (Table 19, symbol N); assay type: in vivo, redroot pigweed (Amaranthus retroflexus)
How it was run: as §3

[16] = tested on: lambsquarters; assay: Test Example 4: herbicidal effect by soil treatment (Table 19, symbol O); assay type: in vivo, lambsquarters (Chenopodium album)
How it was run: as §3

[17] = tested on: chickweed; assay: Test Example 4: herbicidal effect by soil treatment (Table 19, symbol P); assay type: in vivo, common chickweed (Stellaria media)
How it was run: as §3

[18] = tested on: persian speedwell; assay: Test Example 4: herbicidal effect by soil treatment (Table 19, symbol R); assay type: in vivo, Persian speedwell (Veronica persica)
How it was run: as §3

[19] = tested on: southern crabgrass; assay: Test Example 5: herbicidal effect by foliage application, plastic box (Table 20, symbol F); assay type: in vivo, southern crabgrass (Digitaria ciliaris); settings: foliage application, 320 g/ha
How it was run: (§4)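 Plants were sown into sterilized diluvial soil under about 1.5 cm cover and kept in a greenhouse at 25° C. to 30° C. Fourteen days on, foliage received an even spray of the diluted emulsion. Herbicidal or crop effect was judged three weeks afterwards.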

[20] = tested on: green foxtail; assay: Test Example 5: herbicidal effect by foliage application, plastic box (Table 20, symbol G); assay type: in vivo, green foxtail (Setaria viridis); settings: foliage application, 320 g/ha
How it was run: as §4

[21] = tested on: barnyard grass; assay: Test Example 5: herbicidal effect by foliage application, plastic box (Table 20, symbol H); assay type: in vivo, barnyard grass (Echinochloa crus-galli); settings: foliage application, 320 g/ha
How it was run: as §4

[22] = tested on: wild oat; assay: Test Example 5: herbicidal effect by foliage application, plastic box (Table 20, symbol I); assay type: in vivo, wild oat (Avena fatua); settings: foliage application, 320 g/ha
How it was run: as §4

[23] = tested on: blackgrass; assay: Test Example 5: herbicidal effect by foliage application, plastic box (Table 20, symbol J); assay type: in vivo, blackgrass (Alopecurus myosuroides); settings: foliage application, 320 g/ha
How it was run: as §4

[24] = tested on: Italian ryegrass; assay: Test Example 5: herbicidal effect by foliage application, plastic box (Table 20, symbol K); assay type: in vivo, Italian ryegrass (Lolium multiflorum); settings: foliage application, 320 g/ha
How it was run: as §4

[25] = tested on: windgrass; assay: Test Example 5: herbicidal effect by foliage application, plastic box (Table 20, symbol L); assay type: in vivo, windgrass (Apera spica-venti); settings: foliage application, 320 g/ha
How it was run: as §4

[26] = tested on: velvetleaf; assay: Test Example 5: herbicidal effect by foliage application, plastic box (Table 20, symbol M); assay type: in vivo, velvetleaf (Abutilon theophrasti); settings: foliage application, 320 g/ha
How it was run: as §4

[27] = tested on: redroot pigweed; assay: Test Example 5: herbicidal effect by foliage application, plastic box (Table 20, symbol N); assay type: in vivo, redroot pigweed (Amaranthus retroflexus); settings: foliage application, 320 g/ha
How it was run: as §4

[28] = tested on: lambsquarters; assay: Test Example 5: herbicidal effect by foliage application, plastic box (Table 20, symbol O); assay type: in vivo, lambsquarters (Chenopodium album); settings: foliage application, 320 g/ha
How it was run: as §4

[29] = tested on: chickweed; assay: Test Example 5: herbicidal effect by foliage application, plastic box (Table 20, symbol P); assay type: in vivo, common chickweed (Stellaria media); settings: foliage application, 320 g/ha
How it was run: as §4

[30] = tested on: persian speedwell; assay: Test Example 5: herbicidal effect by foliage application, plastic box (Table 20, symbol R); assay type: in vivo, Persian speedwell (Veronica persica); settings: foliage application, 320 g/ha
How it was run: as §4

[31] = amount of applied herbicide 320 g/ha
[32] = evaluated three weeks after application

## CCCC(=O)Oc1c(CC)nn(C)c(=O)c1-c1c(-c2ccc(F)cc2)sc2ccc(F)cc12 [2-407]
[1]; [31]
  Herbicidal effect, A: late watergrass: 3 (Herbicidal rate of 40% or more and less than 70%)
[2]; [31]
  Herbicidal effect, B: Japanese bulrush: 0 (Herbicidal rate of 5% or less (almost no effect))
[3]; [31]
  Herbicidal effect, C: oval-leafed pondweed: 0 (Herbicidal rate of 5% or less (almost no effect))
[4]; [31]
  herbicidal effect on H: barnyard grass: 5 (Herbicidal rate of 90% or more (almost completely withered))
[5]; [31]
  herbicidal effect on D: Chinese sprangletop: 4 (Herbicidal rate of 70% or more and less than 90%)
[6]; [31]
  herbicidal effect on E: rice flat sedge: 4 (Herbicidal rate of 70% or more and less than 90%)
[7]; [31]
  herbicidal effect, F: southern crabgrass: 0 (Herbicidal rate of 5% or less (almost no effect))
[8]; [31]
  herbicidal effect, G: green foxtail: 1 (Herbicidal rate of 5% or more and less than 20%)
[9]; [31]
  herbicidal effect, H: barnyard grass: 0 (Herbicidal rate of 5% or less (almost no effect))
[10]; [31]
  herbicidal effect, I: wild oat: 0 (Herbicidal rate of 5% or less (almost no effect))
[11]; [31]
  herbicidal effect, J: blackgrass: 0 (Herbicidal rate of 5% or less (almost no effect))
[12]; [31]
  herbicidal effect, K: Italian ryegrass: 0 (Herbicidal rate of 5% or less (almost no effect))
[13]; [31]
  herbicidal effect, L: windgrass: 0 (Herbicidal rate of 5% or less (almost no effect))
[14]; [31]
  herbicidal effect, M: velvetleaf: 0 (Herbicidal rate of 5% or less (almost no effect))
[15]; [31]
  herbicidal effect, N: redroot pigweed: 3 (Herbicidal rate of 40% or more and less than 70%)
[16]; [31]
  herbicidal effect, O: lambsquarters: 1 (Herbicidal rate of 5% or more and less than 20%)
[17]; [31]
  herbicidal effect, P: chickweed: 1 (Herbicidal rate of 5% or more and less than 20%)
[18]; [31]
  herbicidal effect, R: persian speedwell: 0 (Herbicidal rate of 5% or less (almost no effect))
[19]; three weeks after application
  F: southern crabgrass, herbicidal effect grade: 0 (Herbicidal rate of 5% or less (almost no effect))
[20]; three weeks after application
  G: green foxtail, herbicidal effect grade: 5 (Herbicidal rate of 90% or more (almost completely withered))
[21]; three weeks after application
  H: barnyard grass, herbicidal effect grade: 3 (Herbicidal rate of 40% or more and less than 70%)
[22]; three weeks after application
  I: wild oat, herbicidal effect grade: 0 (Herbicidal rate of 5% or less (almost no effect))
[23]; three weeks after application
  J: blackgrass, herbicidal effect grade: 0 (Herbicidal rate of 5% or less (almost no effect))
[24]; three weeks after application
  K: Italian ryegrass, herbicidal effect grade: 3 (Herbicidal rate of 40% or more and less than 70%)
[25]; three weeks after application
  L: windgrass, herbicidal effect grade: 0 (Herbicidal rate of 5% or less (almost no effect))
[26]; three weeks after application
  M: velvetleaf, herbicidal effect grade: 5 (Herbicidal rate of 90% or more (almost completely withered))
[27]; three weeks after application
  N: redroot pigweed, herbicidal effect grade: 5 (Herbicidal rate of 90% or more (almost completely withered))
[28]; three weeks after application
  O: lambsquarters, herbicidal effect grade: 3 (Herbicidal rate of 40% or more and less than 70%)
[29]; three weeks after application
  P: chickweed, herbicidal effect grade: 5 (Herbicidal rate of 90% or more (almost completely withered))
[30]; three weeks after application
  R: persian speedwell, herbicidal effect grade: 5 (Herbicidal rate of 90% or more (almost completely withered))

## Cc1nn(C)c(=O)c(-c2c(-c3ccc(Cl)c(Cl)c3)sc3ccc(F)cc23)c1O [2-081]
[1]; 320 g/ha applied herbicide
  Herbicidal effect on A: late watergrass (grade 0-5): 4 (Herbicidal rate of 70% or more and less than 90%)
[2]; 320 g/ha applied herbicide
  Herbicidal effect on B: Japanese bulrush (grade 0-5): 2 (Herbicidal rate of 20% or more and less than 40%)
[3]; 320 g/ha applied herbicide
  Herbicidal effect on C: oval-leafed pondweed (grade 0-5): 0 (Herbicidal rate of 5% or less (almost no effect))
[4]; 320 g/ha
  herbicidal effect on H (barnyard grass), rating 0-5: 5 (Herbicidal rate of 90% or more (almost completely withered))
[5]; 320 g/ha
  herbicidal effect on D (Chinese sprangletop), rating 0-5: 3 (Herbicidal rate of 40% or more and less than 70%)
[6]; 320 g/ha
  herbicidal effect on E (rice flat sedge), rating 0-5: 5 (Herbicidal rate of 90% or more (almost completely withered))
[7]; 320 g/ha
  herbicidal effect rating, F: southern crabgrass: 0 (Herbicidal rate of 5% or less (almost no effect))
[8]; 320 g/ha
  herbicidal effect rating, G: green foxtail: 0 (Herbicidal rate of 5% or less (almost no effect))
[9]; 320 g/ha
  herbicidal effect rating, H: barnyard grass: 0 (Herbicidal rate of 5% or less (almost no effect))
[10]; 320 g/ha
  herbicidal effect rating, I: wild oat: 0 (Herbicidal rate of 5% or less (almost no effect))
[11]; 320 g/ha
  herbicidal effect rating, J: blackgrass: 0 (Herbicidal rate of 5% or less (almost no effect))
[12]; 320 g/ha
  herbicidal effect rating, K: Italian ryegrass: 4 (Herbicidal rate of 70% or more and less than 90%)
[13]; 320 g/ha
  herbicidal effect rating, L: windgrass: 0 (Herbicidal rate of 5% or less (almost no effect))
[14]; 320 g/ha
  herbicidal effect rating, M: velvetleaf: 3 (Herbicidal rate of 40% or more and less than 70%)
[15]; 320 g/ha
  herbicidal effect rating, N: redroot pigweed: 5 (Herbicidal rate of 90% or more (almost completely withered))
[16]; 320 g/ha
  herbicidal effect rating, O: lambsquarters: 4 (Herbicidal rate of 70% or more and less than 90%)
[17]; 320 g/ha
  herbicidal effect rating, P: chickweed: 3 (Herbicidal rate of 40% or more and less than 70%)
[18]; 320 g/ha
  herbicidal effect rating, R: persian speedwell: 4 (Herbicidal rate of 70% or more and less than 90%)
[19]; [32]
  herbicidal effect on F: southern crabgrass: 4 (Herbicidal rate of 70% or more and less than 90%)
[20]; [32]
  herbicidal effect on G: green foxtail: 5 (Herbicidal rate of 90% or more (almost completely withered))
[21]; [32]
  herbicidal effect on H: barnyard grass: 5 (Herbicidal rate of 90% or more (almost completely withered))
[22]; [32]
  herbicidal effect on I: wild oat: 4 (Herbicidal rate of 70% or more and less than 90%)
[23]; [32]
  herbicidal effect on J: blackgrass: 2 (Herbicidal rate of 20% or more and less than 40%)
[24]; [32]
  herbicidal effect on K: Italian ryegrass: 5 (Herbicidal rate of 90% or more (almost completely withered))
[25]; [32]
  herbicidal effect on L: windgrass: 5 (Herbicidal rate of 90% or more (almost completely withered))
[26]; [32]
  herbicidal effect on M: velvetleaf: 5 (Herbicidal rate of 90% or more (almost completely withered))
[27]; [32]
  herbicidal effect on N: redroot pigweed: 5 (Herbicidal rate of 90% or more (almost completely withered))
[28]; [32]
  herbicidal effect on O: lambsquarters: 5 (Herbicidal rate of 90% or more (almost completely withered))
[29]; [32]
  herbicidal effect on P: chickweed: 5 (Herbicidal rate of 90% or more (almost completely withered))
[30]; [32]
  herbicidal effect on R: persian speedwell: 5 (Herbicidal rate of 90% or more (almost completely withered))
